Measurements published in patent US7429607B2, “5-HT2B receptor antagonists” (Asterand UK Limited, priority 2002, dated 2008).

Experiments:
[1] = target: T1, human cloned 5-HT2B receptors (Homo sapiens, UniProt P41595); assay: Human cloned 5-HT2B receptor binding assay ([3H]LSD, CHO-K1 membranes); details: displacement of [3H]LSD (1 nM), read-out: 5-HT2B pKi (converted)
T1 construct: expressed in transfected cells; host or cells: CHO-K1 cells
Protocol: The binding affinity of the compounds for human cloned 5-HT2B receptors was determined using the following assay.
CHO-K1 cells expressing cloned 5-HT2B receptor were maintained in Ultra-CHO medium containing 400 μg/ml of G418, 100 U/ml penicillin, 100 μg/ml streptomycin, 2.5 μg/ml fungizone and 1% foetal bovine serum, in 95/5% O2/CO2 at 37° C. The cells were harvested using 0.25% trypsin and were centrifuged at 800 rpm for 8 minutes. The cells were homogenised in 50 mM HEPES buffer containing 1 mM disodium EDTA and 1 mM PMSF at pH 7.4, using a Dounce homogeniser (20 strokes). The homogenate was centrifuged at 2280 rpm (1000 g) and 4° C. for 10 minutes, after which the supernatant was removed by decanting. The pellet was re-homogenised as above, and the resulting supernatant removed and combined with that already obtained. The supernatant solution was then centrifuged at 18300 rpm (40000 g) for 10 minutes at 4° C. using a Sorvall centrifuge. The supernatant was removed, and the pellet was re-suspended in 50 mM buffer at pH 7.4 using a Ultra-turrax T25 Polytron, before centrifugation again at 40000 g as above. This wash procedure was repeated, after which the membrane preparation was stored at a concentration of 1 mg/ml at −80° C. until use.
The membranes were thawed rapidly and diluted in assay buffer containing Tris-HCl (50 mM, pH 7.4), ascorbic acid (0.1%) and calcium chloride (4 mM). The membranes were homogenised to resuspend them, prior to adding 10 or 15 μg of membranes to assay wells containing [^3H]LSD (1 nM), assay buffer (50 mM Tris, 4 mM calcium chloride and 0.1% ascorbic acid) containing pargyline (10 μM), and the test compounds (1×10^−10 to 1×10^−4M). Non specific binding was determined in the presence of 100 μM 5-HT. After 30 minutes incubation at 37° C., the assay mixture was filtered through a combination of GF-C and GF-B filters, pre-soaked in 1% polyethyleneimine, using a Brandel cell harvester, and were washed three times using 50 mM Tris-HCl. Radioactivity retained on the filters was determined by liquid scintillation counting. For each test compound, the concentration that inhibited binding of [3H]LSD by 50% was determined using curve fitting software (Prism). Kd values (concentration of LSD required to occupy 50% of the receptor binding sites at equilibrium) determined from saturation binding studies were then used to calculate inhibition dissociation constants (Ki) using the following equation: […]
This approach follows that set out in Kenakin, T.P. Pharmacologic analysis of drug-receptor interaction. Raven Press, New York, 2nd Edition.

[2] = target: T2, cloned human 5-HT2C receptor (Homo sapiens, UniProt P28335); assay: Human 5-HT2C receptor binding assay ([3H]mesulergine, CHO-K1 membranes); details: displacement of [3H]mesulergine (1 nM), read-out: 5-HT2C pKi (converted)
T2 construct: purchased Euroscreen; host or cells: CHO-K1 cells
T2 sequence (P28335 33-458): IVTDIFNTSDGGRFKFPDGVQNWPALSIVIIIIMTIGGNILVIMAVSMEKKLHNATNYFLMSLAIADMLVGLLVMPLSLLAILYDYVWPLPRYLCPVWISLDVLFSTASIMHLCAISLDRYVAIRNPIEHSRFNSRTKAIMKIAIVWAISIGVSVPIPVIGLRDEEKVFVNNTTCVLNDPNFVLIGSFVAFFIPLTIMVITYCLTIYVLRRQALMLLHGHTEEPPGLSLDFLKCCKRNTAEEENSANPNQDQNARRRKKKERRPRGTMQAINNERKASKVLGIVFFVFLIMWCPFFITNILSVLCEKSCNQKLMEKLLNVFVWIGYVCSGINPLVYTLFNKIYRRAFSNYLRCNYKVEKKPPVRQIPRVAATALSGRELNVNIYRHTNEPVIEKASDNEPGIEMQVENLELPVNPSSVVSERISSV
Protocol: (§1) The binding affinity of ligands for human 5-HT2A and 5-HT2C receptors was determined using the following assay.
Membrane preparations from CHO-K1 cells expressing the cloned human 5-HT2C receptor were obtained (Euroscreen). The membranes were thawed rapidly and diluted in assay buffer containing Tris-HCl (50 mM, pH 7.7), ascorbic acid (0.1%) and pargyline (10 μM). The membranes were resuspended by homogenisation, prior to adding 6 μg of membranes to assay wells containing [^3H] mesulergine (1 nM), assay buffer (50 mM Tris at pH 7.7 and 0.1% ascorbic acid) containing pargyline (10 μM), and test compounds (1×10^−10 to 1×10^−4M). Non specific binding was determined in the presence of 100 μM mianserin. After 30 minutes incubation at 37° C., the assay mixture was filtered through a combination of GF-C and GF-B filters, pre-soaked in 1% bovine serum albumin, using a Brandel cell harvester, and were washed three times using ice cold Tris-HCl buffer (50 mM). Radioactivity retained on the filters was determined by liquid scintillation counting. For each test compound, the concentration that inhibited binding of [3H]mesulergine by 50% was determined using curve fitting software (Prism). Kd values (concentration of mesulergine required to occupy 50% of the receptor binding sites at equlibrium) determined from saturation binding studies were then used to calculate inhibition dissociation constants (Ki) using the following equation: […]

[3] = target: T3, cloned human 5-HT2A receptor (Homo sapiens, UniProt P28223); assay: Human 5-HT2A receptor binding assay ([3H]ketanserin, CHO-K1 membranes); details: displacement of [3H]ketanserin (1 nM), read-out: 5-HT2A pKi (converted)
T3 construct: purchased Euroscreen; host or cells: CHO-K1 cells
T3 sequence (P28223 whole entry): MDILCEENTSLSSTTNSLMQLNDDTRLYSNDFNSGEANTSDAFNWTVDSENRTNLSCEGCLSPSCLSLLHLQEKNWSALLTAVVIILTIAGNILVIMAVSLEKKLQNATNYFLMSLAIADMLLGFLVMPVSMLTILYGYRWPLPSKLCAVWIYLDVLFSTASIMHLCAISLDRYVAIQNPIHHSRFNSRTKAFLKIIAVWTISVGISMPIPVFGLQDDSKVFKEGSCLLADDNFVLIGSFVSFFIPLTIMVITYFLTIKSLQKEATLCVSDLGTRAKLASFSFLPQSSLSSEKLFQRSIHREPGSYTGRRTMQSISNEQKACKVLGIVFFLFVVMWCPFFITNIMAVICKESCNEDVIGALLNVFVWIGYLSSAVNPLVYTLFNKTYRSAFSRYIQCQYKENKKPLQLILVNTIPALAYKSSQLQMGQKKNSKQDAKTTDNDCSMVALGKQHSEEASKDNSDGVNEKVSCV
Protocol: as §1
Membrane preparations from CHO-K1 cells expressing the cloned human 5-HT2A receptor were obtained (Euroscreen). The membranes were thawed rapidly and diluted in assay buffer containing Tris-HCl (50 mM, pH 7.7). The membranes were resuspended by homogenisation, prior to adding 15 μg of membranes to assay wells containing [3H] ketanserin (1 nM), assay buffer (50 mM Tris at pH 7.4) containing pargyline (10 μM), and test compounds (1×10^−10 to 1×10^−4M). Non specific binding was determined in the presence of 100 μM mianserin. After 15 minutes incubation at 37° C., the assay mixture was filtered through a combination of GF-C and GF-B filters, pre-soaked in 0.05% Brij, using a Brandel cell harvester, and were washed three times using ice cold Tris-HCl buffer (50 mM). Radioactivity retained on the filters was determined by liquid scintillation counting. For each test compound, the concentration that inhibited binding of [^3H]ketanserin by 50% was determined using curve fitting software (Prism). Kd values (concentration of ketanserin required to occupy 50% of the receptor binding sites at equlibrium) determined from saturation binding studies were then used to calculate inhibition dissociation constants (Ki) using the following equation: […]

T1 sequence (P41595 whole entry): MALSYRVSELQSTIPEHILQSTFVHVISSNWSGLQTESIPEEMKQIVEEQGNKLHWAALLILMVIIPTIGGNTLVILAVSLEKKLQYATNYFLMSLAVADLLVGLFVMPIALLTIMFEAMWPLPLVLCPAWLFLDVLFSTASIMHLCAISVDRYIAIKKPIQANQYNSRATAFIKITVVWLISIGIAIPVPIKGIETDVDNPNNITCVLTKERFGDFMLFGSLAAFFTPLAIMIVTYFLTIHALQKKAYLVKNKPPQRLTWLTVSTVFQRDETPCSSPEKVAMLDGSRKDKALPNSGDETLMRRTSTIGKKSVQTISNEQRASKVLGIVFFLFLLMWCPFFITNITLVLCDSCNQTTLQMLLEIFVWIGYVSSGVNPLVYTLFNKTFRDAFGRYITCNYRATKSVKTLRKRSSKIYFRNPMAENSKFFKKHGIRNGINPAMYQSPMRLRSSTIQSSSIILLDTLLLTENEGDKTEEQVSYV

Row | Structure (SMILES) | Ki [1] [nM] | Ki [2] [nM] | Ki [3] [nM] | melting point [°C]
1 | N#Cc1ccc2cccc(-c3coc(N)n3)c2c1 [Compound 20, 4-(7-carbonitrile-naphthalen-1-yl)-oxazol-2-ylamine] | < 10000 | > 10000 | > 10000 | –
2 | Cc1oc(N)nc1-c1cccc2ccccc12 [Compound 30, 5-Methyl-4-naphthalen-1-yl-oxazol-2-ylamine] | < 100 | – | > 10000 | –
3 | Nc1nc(-c2cccc3ccc(Br)cc23)co1 [Compound 5, 2-amino-4-(7′-bromonaphth-1-yl)oxazole] | < 100 | > 1000 | > 1000 | 189 to 190
4 | Nc1nc(-c2ccc(F)c3ccccc23)co1 [Compound 4, 2-amino-4-(4′-fluoronaphth-1-yl)oxazole] | < 100 | > 1000 | > 1000 | 171 to 174
5 | Cc1c(-c2coc(N)n2)sc2ccccc12 [Compound 13, 4-(3-methyl-benzo[b]thiophen-2-yl)-oxazol-2-ylamine] | < 1000 | > 1000 | > 10000 | –
6 | COc1ccc(-c2coc(N)n2)c2ccccc12 [Compound 11, 4-(4-methoxy-naphthalen-1-yl)-oxazol-2-ylamine] | < 100 | > 10000 | > 10000 | –
7 | Nc1nc(-c2ccc3c(c2)OCCO3)co1 [Compound 14, 4-(2,3-dihydro-benzo[1,4]dioxin-6-yl)-oxazol-2-ylamine] | < 1000 | > 10000 | > 10000 | –
8 | NC(=O)c1ccc2cccc(-c3coc(N)n3)c2c1 [Compound 24, 8-(2-amino-oxazol-4-yl)-naphthalene-2-carboxylic acid amide] | < 10000 | > 10000 | > 10000 | –
9 | COc1c(-c2coc(N)n2)ccc2ccccc12 [Compound 18, 4-(1-methoxy-naphthalen-2-yl)-oxazol-2-ylamine] | < 1000 | > 10000 | > 10000 | –
10 | COC(=O)COc1ccc2ccccc2c1-c1coc(N)n1 [Compound 23, [1-(2-amino-oxazol-4-yl)-naphthalen-2-yloxy]-acetic acid methyl ester] | < 1000 | > 10000 | – | –
11 | CN(C)c1nc(-c2cccc3ccccc23)co1 [Compound 8, 2-dimethylamino-4-(naphth-1-yl)oxazole] | < 1000 | > 10000 | > 10000 | 30 to 32
12 | Nc1nc(-c2cccc3c(Br)cccc23)co1 [Compound 19, 4-(5-bromo-naphthalen-1-yl)-oxazol-2-ylamine] | < 10000 | > 1000 | > 10000 | –
13 | Nc1nc(-c2c(OCc3ccccc3)ccc3ccccc23)co1 [Compound 12, 4-(2-benzyloxy-naphthalen-1-yl)-oxazol-2-ylamine] | < 1000 | – | – | –
14 | Nc1nc(CO)c(-c2cccc3ccccc23)o1 [Compound 29, (2-amino-5-naphthalen-1-yl-oxazol-4-yl)-methanol] | < 100 | > 1000 | – | –
15 | COc1ccc2ccccc2c1-c1oc(N)nc1C [Compound 26, 5-(2-methoxy-naphthalen-1-yl)-4-methyl-oxazol-2-ylamine] | < 10 | – | > 1000 | –
16 | CC(=O)OCc1nc(N)oc1-c1cccc2ccccc12 [Compound 28, acetic acid 2-amino-5-naphthalen-1-yl-oxazol-4-ylmethyl ester] | < 100 | – | > 10000 | –
17 | N#Cc1cccc2c(-c3coc(N)n3)cccc12 [Compound 21, 4-(5-carbonitrile-naphthalen-1-yl)-oxazol-2-ylamine] | < 10000 | > 1000 | > 10000 | –
18 | Nc1nc(-c2cccc3sccc23)co1 [Compound 15, 4-benzo[b]thiophen-4-yl-oxazol-2-ylamine] | < 1000 | > 1000 | > 1000 | –
19 | CC(=O)Nc1nc(-c2cccc3ccccc23)co1 [Compound 9, 2-acetylamino-4-(naphth-1-yl)oxazole] | < 1000 | > 1000 | > 10000 | 188 to 190
20 | CCOc1ccc2ccccc2c1-c1coc(N)n1 [Compound 10, 4-(2-ethoxy-naphthalen-1-yl)-oxazol-2-ylamine] | < 10 | > 1000 | > 1000 | –
21 | Nc1nc(-c2c(O)ccc3ccccc23)co1 [Compound 22, 1-(2-amino-oxazol-4-yl)-naphthalen-2-ol] | < 100 | – | > 1000 | –
